PubChem BioAssay AID330 (DTP/NCI, 2004)
Where “and” joins values, the source holds several entries; their conditions need not be identical. Equal values may be shown once. Inconclusive results and toxic doses are left out.

Test system: P388 leukemia ip, CD2F1 mice, survival T/C
Test: NCI In Vivo Anticancer Drug Screen. Data for tumor model P388 Leukemia (intraperitoneal) in CD2F1 (CDF1) mice
Conditions: endpoint: median survival time, higher = longer survival
How it was run: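 Mice carrying the transplanted tumor received test compound or vehicle. Survival was recorded in each group, and the value is the treated-group measurement divided by that of the vehicle-treated control group.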

[1] = dose: 50.0 mg/kg/injection, schedule: Q01DX009 (ip), vehicle: saline with Tween-80
[2] = dose: 100.0 mg/kg/injection, schedule: Q01DX009 (ip), vehicle: saline with Tween-80
[3] = dose: 200.0 mg/kg/injection, schedule: Q01DX009 (ip), vehicle: saline with Tween-80
[4] = dose: 50.0 mg/kg/injection, schedule: Q01DX005 (ip), vehicle: saline with Tween-80
[5] = dose: 100.0 mg/kg/injection, schedule: Q01DX005 (ip), vehicle: saline with Tween-80
[6] = dose: 200.0 mg/kg/injection, schedule: Q01DX005 (ip), vehicle: saline with Tween-80
[7] = dose: 60.0 mg/kg/injection, schedule: Q01DX005 (ip), vehicle: Klucel (hydroxypropylcellulose) (HPC)
[8] = dose: 120.0 mg/kg/injection, schedule: Q01DX005 (ip), vehicle: Klucel (hydroxypropylcellulose) (HPC)
[9] = dose: 50.0 mg/kg/injection, schedule: Q01DX009 (ip), vehicle: Klucel (hydroxypropylcellulose) (HPC)
[10] = dose: 100.0 mg/kg/injection, schedule: Q01DX009 (ip), vehicle: Klucel (hydroxypropylcellulose) (HPC)
[11] = dose: 200.0 mg/kg/injection, schedule: Q01DX009 (ip), vehicle: Klucel (hydroxypropylcellulose) (HPC)

CC1OC2CC(O)C1(O)C1=C2C(O)=C(C(N)=O)C(=N)C1=O (centres undefined)
T/C (dose: 0.01 mg/kg/injection, schedule: Q01DX009 (ip), vehicle: water): 99 % of control
T/C (dose: 0.03 mg/kg/injection, schedule: Q01DX009 (ip), vehicle: water): 100 % of control
T/C (dose: 0.07 mg/kg/injection, schedule: Q01DX009 (ip), vehicle: other): 95 % of control
T/C (dose: 0.1 mg/kg/injection, schedule: Q01DX009 (ip), vehicle: water): 100 % of control
T/C (dose: 0.15 mg/kg/injection, schedule: Q01DX009 (ip), vehicle: other): 98 % of control
T/C (dose: 0.3 mg/kg/injection, schedule: Q01DX009 (ip), vehicle: water): 100 % of control
T/C (dose: 0.31 mg/kg/injection, schedule: Q01DX005 (ip), vehicle: saline): 104 % of control
T/C (dose: 0.31 mg/kg/injection, schedule: Q01DX009 (ip), vehicle: other): 107 % of control
T/C (dose: 0.62 mg/kg/injection, schedule: Q01DX005 (ip), vehicle: saline): 104 % of control
T/C (dose: 0.62 mg/kg/injection, schedule: Q01DX009 (ip), vehicle: other): 101 % of control
T/C (dose: 1.0 mg/kg/injection, schedule: Q01DX009 (ip), vehicle: water): 90 % of control
T/C (dose: 1.25 mg/kg/injection, schedule: Q01DX005 (ip), vehicle: saline): 104 % of control
T/C (dose: 1.25 mg/kg/injection, schedule: Q01DX009 (ip), vehicle: other): 103 % of control
T/C (dose: 2.5 mg/kg/injection, schedule: Q01DX005 (ip), vehicle: saline): 104 % of control
T/C (dose: 2.5 mg/kg/injection, schedule: Q01DX009 (ip), vehicle: other): 113 % of control
T/C (dose: 3.0 mg/kg/injection, schedule: Q01DX009 (ip), vehicle: water): 100 % of control
T/C (dose: 5.0 mg/kg/injection, schedule: Q01DX005 (ip), vehicle: saline): 101 % of control

COc1ccc(Cc2c3cc(OC)c(OC)cc3cc[n+]2CC(=O)c2ccc(F)cc2)cc1OC
T/C (dose: 25.0 mg/kg/injection, schedule: Q01DX005 (ip), vehicle: Klucel (hydroxypropylcellulose) (HPC)): 108 % of control
T/C (dose: 50.0 mg/kg/injection, schedule: Q01DX005 (ip), vehicle: Klucel (hydroxypropylcellulose) (HPC)): 100 % of control

CC1=NN(C(=O)c2ccncc2)C(=O)C1N=Nc1ccc(S(=O)(=O)Nc2ccccn2)cc1 (centres undefined)
T/C [1]: 92 % of control
T/C [2]: 90 % of control
T/C [3]: 103 % of control

CC1=C(Cl)C(=O)c2c(O)cccc2C1=O
T/C (dose: 1.0 mg/kg/injection, schedule: Q01DX005 (ip), vehicle: Klucel + Tween-80): 91 % of control
T/C (dose: 2.0 mg/kg/injection, schedule: Q01DX005 (ip), vehicle: Klucel + Tween-80): 94 % of control
T/C (dose: 4.0 mg/kg/injection, schedule: Q01DX005 (ip), vehicle: Klucel + Tween-80): 97 % of control

CCCCOC(=O)/C=C(\Cl)C(=O)OCCCC
T/C (dose: 12.5 mg/kg/injection, schedule: Q01DX009 (ip), vehicle: saline with Tween-80): 102 % of control and 106 % of control and 111 % of control
T/C (dose: 25.0 mg/kg/injection, schedule: Q01DX009 (ip), vehicle: saline with Tween-80): 111 % of control and 114 % of control and 118 % of control
T/C [2]: 86 % of control

O=c1c2[nH]c3ccccc3sc=2c(=O)n1-c1cccc(Cl)c1
T/C [4]: 102 % of control
T/C [5]: 102 % of control
T/C [6]: 105 % of control

CC(=O)Nc1ccc(S(=O)(=O)NC2C(O)OC(CO)C(O)C2O)cc1 (centres undefined)
T/C (dose: 50.0 mg/kg/injection, schedule: Q01DX005 (ip), vehicle: saline): 95 % of control
T/C (dose: 100.0 mg/kg/injection, schedule: Q01DX005 (ip), vehicle: saline): 105 % of control
T/C (dose: 200.0 mg/kg/injection, schedule: Q01DX005 (ip), vehicle: saline): 97 % of control

O=[N+]([O-])c1ccc(OCS(=O)(=O)c2ccc(Cl)cc2)cc1
T/C [1]: 95 % of control
T/C [2]: 92 % of control
T/C [3]: 95 % of control

OC[C@@H]1CCCN2CCCC[C@H]12
T/C (dose: 6.2 mg/kg/injection, schedule: Q01DX007 (ip), vehicle: carboxymethylcellulose (CMC)): 91 % of control
T/C (dose: 12.5 mg/kg/injection, schedule: Q01DX007 (ip), vehicle: carboxymethylcellulose (CMC)): 91 % of control
T/C (dose: 25.0 mg/kg/injection, schedule: Q01DX007 (ip), vehicle: carboxymethylcellulose (CMC)): 91 % of control

CNC1C(c2ccc(C)cc2)=NN(c2ccccc2)C1c1ccccc1 (centres undefined)
T/C (dose: 100.0 mg/kg/injection, schedule: Q01DX001 (ip), vehicle: saline sonified): 100 % of control
T/C (dose: 200.0 mg/kg/injection, schedule: Q01DX001 (ip), vehicle: saline sonified): 100 % of control
T/C (dose: 400.0 mg/kg/injection, schedule: Q01DX001 (ip), vehicle: saline sonified): 105 % of control

CC(=O)c1ccccc1N=Nc1ccc(N(CCCl)CCCl)cc1
T/C [1]: 108 % of control
T/C [2]: 106 % of control
T/C [3]: 112 % of control

[Br][Pt+2][Br].[NH-]C1CCCC1[NH-] (centres undefined)
T/C (dose: 12.5 mg/kg/injection, schedule: Q04DX002 (ip), vehicle: saline with Tween-80): 164 % of control
T/C (dose: 25.0 mg/kg/injection, schedule: Q04DX002 (ip), vehicle: saline with Tween-80): 197 % of control and 174 % of control
T/C (dose: 50.0 mg/kg/injection, schedule: Q04DX002 (ip), vehicle: saline with Tween-80): 93 % of control and 212 % of control

CN1CCCN(C)C1c1cc(Br)ccc1O
T/C (dose: 6.25 mg/kg/injection, schedule: Q01DX009 (ip), vehicle: saline sonified): 95 % of control
T/C (dose: 12.5 mg/kg/injection, schedule: Q01DX009 (ip), vehicle: saline sonified): 90 % of control
T/C (dose: 25.0 mg/kg/injection, schedule: Q01DX009 (ip), vehicle: saline sonified): 100 % of control

CC1=CC(O)(c2ccccn2)P(=O)(c2ccccc2)C=C1C (centres undefined)
T/C [7]: 115 % of control
T/C [8]: 111 % of control
T/C (dose: 240.0 mg/kg/injection, schedule: Q01DX005 (ip), vehicle: Klucel (hydroxypropylcellulose) (HPC)): 99 % of control

COc1cc2c(cc1O)-c1c(cnn1-c1ccccc1)CCC2
T/C (dose: 50.0 mg/kg/injection, schedule: Q01DX009 (ip), vehicle: saline): 119 % of control
T/C (dose: 100.0 mg/kg/injection, schedule: Q01DX009 (ip), vehicle: saline): 118 % of control
T/C (dose: 200.0 mg/kg/injection, schedule: Q01DX009 (ip), vehicle: saline): 94 % of control

COC(=O)C1Cc2c([nH]c3ccccc23)C2CCC(=O)N12 (centres undefined)
T/C [9]: 108 % of control
T/C [10]: 100 % of control
T/C [11]: 104 % of control

CC1C(=O)OC2C1CCC1(C)CC(Br)C(=O)C(C)C21 (centres undefined)
T/C (dose: 100.0 mg/kg/injection, schedule: Q04DX002 (ip), vehicle: saline with Tween-80): 102 % of control
T/C (dose: 200.0 mg/kg/injection, schedule: Q04DX002 (ip), vehicle: saline with Tween-80): 102 % of control and 100 % of control
T/C (dose: 400.0 mg/kg/injection, schedule: Q04DX002 (ip), vehicle: saline with Tween-80): 104 % of control and 101 % of control

O=C(O)c1c(Cl)c(Cl)c(Cl)c(Cl)c1-c1c2ccc(=O)cc-2oc2cc(O)ccc12
T/C (dose: 60.0 mg/kg/injection, schedule: Q01DX005 (ip), vehicle: saline with Tween-80): 100 % of control
T/C (dose: 120.0 mg/kg/injection, schedule: Q01DX005 (ip), vehicle: saline with Tween-80): 100 % of control
T/C (dose: 240.0 mg/kg/injection, schedule: Q01DX005 (ip), vehicle: saline with Tween-80): 96 % of control

COC(=O)C(Cc1c[nH]c2ccccc12)NC(=O)C(Cc1cnc[nH]1)N(C(=O)OCc1ccccc1)C(=O)OCc1ccccc1 (centres undefined)
T/C [4]: 100 % of control
T/C [5]: 89 % of control
T/C [6]: 98 % of control

COC(=O)c1ccccc1N=NNc1ccccc1C#N
T/C (dose: 100.0 mg/kg/injection, schedule: Q01DX001 (ip), vehicle: Klucel (hydroxypropylcellulose) (HPC)): 109 % of control
T/C (dose: 200.0 mg/kg/injection, schedule: Q01DX001 (ip), vehicle: Klucel (hydroxypropylcellulose) (HPC)): 103 % of control
T/C (dose: 400.0 mg/kg/injection, schedule: Q01DX001 (ip), vehicle: Klucel (hydroxypropylcellulose) (HPC)): 94 % of control

N#CCC1(c2ccccc2)CCCCC1
T/C [1]: 97 % of control
T/C [2]: 107 % of control
T/C [3]: 107 % of control

CC1C(=O)OC2CC[N+]3(C(=O)C(F)(F)F)CC4OC4(COC(=O)C(C)(O)C1(C)O)C23 (centres undefined)
T/C (dose: 60.0 mg/kg/injection, schedule: Q01DX005 (ip), vehicle: suspension in saline): 104 % of control
T/C (dose: 120.0 mg/kg/injection, schedule: Q01DX005 (ip), vehicle: suspension in saline): 93 % of control
T/C (dose: 240.0 mg/kg/injection, schedule: Q01DX005 (ip), vehicle: suspension in saline): 92 % of control

COc1cc(N2C(=O)C(=O)C(C(C)=O)C2=O)c(OC)cc1Cl (centres undefined)
T/C [9]: 100 % of control
T/C [10]: 99 % of control
T/C [11]: 100 % of control

CCN(CC)Cc1c(C)[nH]c2cc3c(cc2c1=O)CCCC3
T/C [7]: 98 % of control
T/C [8]: 90 % of control
